# Earlier results in patent publication US11331392B2, “Biodegradable thermo-responsive polymers and uses thereof” (The Trustees of Columbia University in the City of New York, priority 2014, dated 2022).
# Tested on: endothelial and tumor cells
smiles,measurement,value
"Cc1cc(O)ccc1O [methylhydroquinone (MHQ), methylhydroquinone]",concentration range inhibiting growth of cells in culture,micromolar range
